# US6329155A, “Methods of identifying agents which regulate release of amyloid precursor protein” (Massachusetts Institute of Technology, priority 1994, dated 2001)
# Ends that are not written are not given here.
# Columns and labels:
# [1] = tested on: mAChR-transfected 293 cell lines; assay: APP processing in mAChR-transfected 293 cell lines, subtype not stated (Western blot); type: cell-based, human
# [2] = tested on: serotonin receptor subtype 5HT2; assay: APP derivative release by 3T3 fibroblasts transfected with serotonin receptor subtype 5HT2; type: cell-based; settings: 3T3 fibroblasts transfected with 5HT2; serum-deprived 24 hours
# human m2 mAChR = assay: APP release by human 293 cells transfected with m2 mAChR; type: cell-based; settings: carbachol
# wild-type 293 cells = assay: APP release by wild-type (nontransfected) human 293 cells; type: cell-based; settings: wild-type cell lines; carbachol
# human m4 mAChR = assay: APP release by human 293 cells transfected with m4 mAChR; type: cell-based; settings: carbachol
# [3] = target: T1, PC-12 bradykinin receptors (Rattus norvegicus, UniProt P25023); assay: Secretion of soluble APP (APPs) by PC-12 cells via bradykinin receptors; type: cell-based
# T1 construct: functional APPs secretion
# T1 sequence (P25023 1-396): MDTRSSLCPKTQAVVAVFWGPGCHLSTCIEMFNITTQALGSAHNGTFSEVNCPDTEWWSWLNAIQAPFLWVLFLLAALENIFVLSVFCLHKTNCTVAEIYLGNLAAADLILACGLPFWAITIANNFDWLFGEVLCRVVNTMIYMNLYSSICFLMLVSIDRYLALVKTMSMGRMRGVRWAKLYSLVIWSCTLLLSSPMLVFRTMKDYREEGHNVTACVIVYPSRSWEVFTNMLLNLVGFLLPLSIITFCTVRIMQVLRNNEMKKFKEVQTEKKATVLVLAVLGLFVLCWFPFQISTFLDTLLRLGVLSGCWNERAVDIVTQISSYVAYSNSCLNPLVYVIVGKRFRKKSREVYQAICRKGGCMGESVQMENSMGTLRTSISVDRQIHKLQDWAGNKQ
# Method: PC-12 cell lines were obtained from American Type Culture Collection (CRL 1721) and grown in Dulbecco's modified Eagle's medium supplemented with 10% horse serum and 2.5% fetal bovine serum at 37° C. under a 5% carbon dioxide atmosphere. Cells were plated on collagen-coated culture dishes. For differentiation into the neuronal phenotype, 50 ng/ml nerve growth factor was added 24 hours after plating and differentiation was verified after three days by neurite outgrowth. Experiments were conducted with subconfluent monolayers approximately five days after plating.
# Media were removed from culture dishes; cells were washed twice with serum-free N2 medium and experiments were done at 37° C. on a hot plate in serum-free N2 medium. Media were removed after incubation periods, desalted on sephadex G-25 columns with water as eluent, lyophilized and resuspended in 100 μl sample butter, and boiled for five minutes. Experiments were carried out in triplicate culture dishes and were repeated three to six times.
# Cells were treated with 10 μM bradykinin or with vehicle (control) and secretion of APP was assessed over time, using Western blot and densitometry. […] Membranes were blocked, and probed with monoclonal antibody 22C11. Membranes were washed, and incubated with anti-mouse IgG conjugated to horseradish peroxidase. Bands were visualized with enhanced chemiluminescence using pre-flashed (linear) x-ray films. For densitometric analysis, bands were scanned with a Pharmacia LKB UltroScan XL laser densitometer set at 40 μm vertical interval size and […] horizontal slit width. Data were normalized to vehicle-treated controls which were always run within the same blots.
# human m3 mAChR = target: T2, human m3 mAChR (Homo sapiens, UniProt P20309); type: cell-based
# T2 construct: expressed in transfected cells; m3 200,000 receptors per cell
# human m1 mAChR = target: T3, human m1 mAChR (Homo sapiens, UniProt P11229)
# T3 sequence (P11229 1-460): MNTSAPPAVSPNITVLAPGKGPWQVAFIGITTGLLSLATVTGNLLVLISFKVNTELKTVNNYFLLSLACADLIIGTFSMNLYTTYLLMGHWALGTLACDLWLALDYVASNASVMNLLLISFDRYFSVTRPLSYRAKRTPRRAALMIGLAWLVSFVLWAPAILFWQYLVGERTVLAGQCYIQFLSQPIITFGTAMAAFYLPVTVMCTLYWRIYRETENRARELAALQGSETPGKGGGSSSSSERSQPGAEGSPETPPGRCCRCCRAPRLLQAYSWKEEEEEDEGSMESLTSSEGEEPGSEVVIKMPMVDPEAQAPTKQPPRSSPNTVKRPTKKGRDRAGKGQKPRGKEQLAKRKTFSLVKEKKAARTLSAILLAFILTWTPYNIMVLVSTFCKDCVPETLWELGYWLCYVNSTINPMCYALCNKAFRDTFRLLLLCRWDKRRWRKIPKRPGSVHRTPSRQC
# [4] = stimulation with carbachol, Western blot
# T2 sequence (P20309 whole entry): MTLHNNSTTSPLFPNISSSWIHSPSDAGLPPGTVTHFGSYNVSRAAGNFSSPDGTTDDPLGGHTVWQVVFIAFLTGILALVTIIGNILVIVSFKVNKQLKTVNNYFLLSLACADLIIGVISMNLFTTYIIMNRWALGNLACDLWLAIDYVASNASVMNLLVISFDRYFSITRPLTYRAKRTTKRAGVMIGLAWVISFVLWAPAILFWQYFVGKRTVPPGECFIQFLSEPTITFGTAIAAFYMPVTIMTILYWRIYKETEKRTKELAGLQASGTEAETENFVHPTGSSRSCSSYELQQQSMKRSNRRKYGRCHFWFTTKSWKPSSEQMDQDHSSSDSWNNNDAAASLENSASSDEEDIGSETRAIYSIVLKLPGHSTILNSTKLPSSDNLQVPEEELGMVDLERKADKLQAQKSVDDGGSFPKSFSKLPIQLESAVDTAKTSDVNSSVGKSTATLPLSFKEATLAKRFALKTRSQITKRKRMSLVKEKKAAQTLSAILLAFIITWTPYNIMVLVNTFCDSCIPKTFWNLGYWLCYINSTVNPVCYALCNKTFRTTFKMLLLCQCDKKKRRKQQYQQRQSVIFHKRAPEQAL
molecule,measurement,setting,value
CNc1ccc2oc(C[C@H]3O[C@@]4(CC[C@H]3C)O[C@H]([C@H](C)C(=O)c3ccc[nH]3)[C@H](C)C[C@H]4C)nc2c1C(=O)O [A23187],stimulation of basal APP release by calcium ionophore alone,"[1]; 10 μm ionophore, cell line not stated in text (FIG. 1B)",failure
NCCc1c[nH]c2ccc(O)cc12 [Serotonin],release of N-terminal non-amyloidogenic APP derivatives,[2],increases release
C[N+](C)(C)CCOC(N)=O [carbachol],128 kD APP derivative secreted into the culture medium,[1]; [4],increase
same,abundance of cell-associated 115 kD APP,[1]; [4],remained unaffected
same,abundance of cell-associated 141 kD APP,[1]; [4],decreased
same,"basal release of APP fragments, effect of agonist",human m2 mAChR,not stimulated
same,"basal release of APP fragments, effect of agonist",wild-type 293 cells,not stimulated
same,"basal release of APP fragments, effect of agonist",human m4 mAChR,not stimulated
CN[C@@H]1C[C@H]2O[C@@](C)([C@@H]1OC)n1c3ccccc3c3c4c(c5c6ccccc6n2c5c31)C(=O)NC4 [staurosporine],effect on bradykinin-induced APPS secretion,"[3]; PC-12 cells, added with bradykinin",inhibited
same,effect on receptor-activated (carbachol-induced) APP release,human m3 mAChR,inhibited
same,effect on receptor-activated (carbachol-induced) APP release,human m1 mAChR,inhibited
RPPGFSPFR [bradykinin],secretion of soluble N-terminal APP derivatives (APPS) into the medium,"[3]; NGF-differentiated PC-12 cells, 10 μM bradykinin vs vehicle",increases
same,APPs secretion in undifferentiated PC-12 cells,[3]; PC-12 cells without nerve growth factor,stimulates
